According to the supplement of paper PMC11061612:

How the values were obtained:
[1] = system: NCI-H322M (Lung Adenocarcinoma); test: Bliss excess, mean over the matrix (fraction); higher = more synergy
In short: (§1)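 After 24 hours at 37°C and 5% CO2 in 1536-well plates, cells in DMEM/F12 or RPMI plus 10% FBS received two-drug dose matrices for 72 hours. Viability came from CellTiter-Glo 2.0 luminescence and was scaled as inhibition, anchored at 0 by vehicle wells and at 1 by blank wells. Combination Emax is taken as the second-highest inhibition in the matrix, and Bliss excess as the observed combination effect less EA + EB − EA·EB, with EA and EB the single-agent effects.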

[2] = system: HuP-T3 (Pancreatic Carcinoma); test: as above
In short: as §1

[3] = system: OVISE (Ovarian Carcinoma); test: combination Emax (second highest fraction inhibited in the dose matrix, 72 h); higher = more inhibition; extreme values may be limits of the assay
In short: as §1

EW-18 (Ewing's Sarcoma) = test: as above
In short: as §1

RPMI-7951 (Melanoma) = test: as above
In short: as §1

[4] = system: ASH-3 (Thyroid Gland Carcinoma); test: as above
In short: as §1

[5] = system: NCI-H2405 (Lung Adenocarcinoma); test: as above
In short: as §1

EW-13 (Ewing's Sarcoma) = test: as above
In short: as §1

[6] = system: SNU-C1 (Colorectal Carcinoma); test: as above
In short: as §1

[7] = system: LOU-NH91 (Squamous Cell Lung Carcinoma); test: as above
In short: as §1

[8] = system: PF-382 (T-Lymphoblastic Leukemia); test: as above
In short: as §1

[9] = system: KLE (Endometrial Carcinoma); test: as above
In short: as §1

[10] = system: OCUB-M (Breast Carcinoma); test: as above
In short: as §1

[11] = system: NCI-H513 (Other Solid Carcinomas); test: as above
In short: as §1

[12] = system: KYSE-150 (Esophageal Squamous Cell Carcinoma); test: as above
In short: as §1

[13] = system: KP-2 (Pancreatic Carcinoma); test: as above
In short: as §1

[14] = system: EMC-BAC-2 (Non-Small Cell Lung Carcinoma); test: as above
In short: as §1

[15] = system: MFE-319 (Endometrial Carcinoma); test: as above
In short: as §1

IMR-5 (Neuroblastoma) = test: as above
In short: as §1

[16] = system: SCC-9 (Oral Cavity Carcinoma); test: as above
In short: as §1
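For Bliss excess, mean over the matrix in this document: after 72 h of two-drug dosing.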

CCc1c2c(nc3ccc(O)cc13)-c1cc3c(c(=O)n1C2)COC(=O)[C@]3(O)CC [SN-38] + O=C(c1cc(Cc2n[nH]c(=O)c3ccccc23)ccc1F)N1CCN(C(=O)C2CC2)CC1 [Olaparib] (first compound max 0.3 µM, 7x7, partner max 10 µM)
Bliss excess [1]: 0.0495
Bliss excess [2]: -0.0406
combination Emax [3]: 0.293
combination Emax (EW-18 (Ewing's Sarcoma)): 0.773
combination Emax (RPMI-7951 (Melanoma)): 0.948
combination Emax [4]: 0.912
combination Emax [5]: 0.472
combination Emax (EW-13 (Ewing's Sarcoma)): 0.811
combination Emax [6]: 0.349
combination Emax [7]: 0.883
combination Emax [8]: 1
combination Emax [9]: 0.453
combination Emax [10]: 0.922
combination Emax [11]: 0.615
combination Emax [12]: 0.728
combination Emax [13]: 0.55
combination Emax [14]: 0.531
combination Emax [15]: 0.301
combination Emax (IMR-5 (Neuroblastoma)): 1
combination Emax [16]: 0.365
